The target of the assay is T1, PAR4 (Homo sapiens, UniProt Q96RI0).
T1 construct: expressed in transfected cells; host or cells: HEK293 PAR4 Clone 1.2A (BMS Arctic ID 383940)
T1 sequence (Q96RI0 18-385): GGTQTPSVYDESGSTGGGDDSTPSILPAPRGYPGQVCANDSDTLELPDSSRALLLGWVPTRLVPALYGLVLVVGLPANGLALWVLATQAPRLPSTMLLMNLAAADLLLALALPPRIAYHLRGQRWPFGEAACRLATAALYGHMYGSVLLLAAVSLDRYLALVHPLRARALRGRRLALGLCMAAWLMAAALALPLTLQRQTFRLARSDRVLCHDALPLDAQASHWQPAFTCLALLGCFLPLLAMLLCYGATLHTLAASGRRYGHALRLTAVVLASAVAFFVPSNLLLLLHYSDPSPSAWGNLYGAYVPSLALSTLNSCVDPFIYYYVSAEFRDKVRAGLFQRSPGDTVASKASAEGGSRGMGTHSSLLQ
In words: PAR4 FLIPR assay (antagonism of agonist peptide-induced calcium mobilization). The class given is cell-based. The essentials:
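Antagonism was taken as block of calcium mobilization evoked by the agonist peptide H-Ala-Phe(4-F)-Pro-Gly-Trp-Leu-Val-Lys-Asn-[…]-NH2, added after 30 min room-temperature compound preincubation in dye-loaded PAR4-transfected HEK293 cells (endogenous PAR1). Fluorescence was read on FDSS, with compound addition alone used as the agonist counter-screen; values come from 11-point concentration-response curves.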
For orientation: Calcium flux is commonly read through the fluorescence of an indicator in the cells.

Molecules are shown by their SMILES. Bounds are passed on as bounds.

Consider `COc1cnc2c(-c3nc4cc(F)c5c(c4s3)C[C@H](CNC(=O)Cc3ccccc3)O5)cc(C)cc2n1` [Example 217, (R)-N-((5-fluoro-2-(2-methoxy-7-methylquinoxalin-5-yl)-7,8-dihydrobenzofuro[5,4-d]thiazol-7-yl)methyl)-2-phenylacetamide], for which the IC50 – broadly, the concentration that inhibits the measured activity by half – was 120 nM.
In the case of `COC(=O)NC[C@H]1Cc2c(c(F)cc3nc(-c4cc(C)cc5nc(OC)cnc45)sc23)O1` [Example 218, (R)-methyl ((5-fluoro-2-(2-methoxy-7-methylquinoxalin-5-yl)-7,8-dihydrobenzofuro[5,4-d]thiazol-7-yl)methyl)carbamate] it was 15 nM.
With `COc1cnc2c(-c3nc4cc(F)c5c(c4s3)C[C@H](CNC(C)=O)O5)cc(C)cc2n1` [Example 219, (R)-N-((5-fluoro-2-(2-methoxy-7-methylquinoxalin-5-yl)-7,8-dihydrobenzofuro[5,4-d]thiazol-7-yl)methyl)acetamide], the IC50 came to 180 nM.
In the case of `COc1cnc2c(-c3nc4cc(F)c5c(c4s3)C[C@H](CNC(=O)Oc3ccccc3)O5)cc(C)cc2n1` [Example 220, (R)-phenyl ((5-fluoro-2-(2-methoxy-7-methylquinoxalin-5-yl)-7,8-dihydrobenzofuro[5,4-d]thiazol-7-yl)methyl)carbamate] it was 38 nM; in that of `COc1cnc2c(-c3nc4cc(F)c5c(c4s3)C[C@H](CNC(=O)OCc3ccccc3)O5)cc(C)cc2n1` [Example 221, (R)-benzyl ((5-fluoro-2-(2-methoxy-7-methylquinoxalin-5-yl)-7,8-dihydrobenzofuro[5,4-d]thiazol-7-yl)methyl)carbamate], 5.9 nM; in that of `COc1cnc2c(-c3nc4cc(F)c5c(c4s3)C[C@H](CNC(=O)C(F)(F)F)O5)cc(C)cc2n1` [Example 222, (R)-2,2,2-trifluoro-N-((5-fluoro-2-(2-methoxy-7-methylquinoxalin-5-yl)-7,8-dihydrobenzofuro[5,4-d]thiazol-7-yl)methyl)acetamide], over 500 nM.
Regarding `COc1cnc2c(-c3nc4cc(F)c5c(c4s3)C[C@H](CNC(=O)OC(C)(C)C)O5)cc(C)cc2n1` [Example 223, (R)-tert-butyl ((5-fluoro-2-(2-methoxy-7-methylquinoxalin-5-yl)-7,8-dihydrobenzofuro[5,4-d]thiazol-7-yl)methyl)carbamate], the IC50 turned out to be 5.8 nM.
For `COc1cnc2c(-c3nc4ccc5c(c4s3)C[C@@H](CNC(=O)OCC(C)C)O5)cc(C)cc2n1` [Example 224, (S)-isobutyl ((2-(2-methoxy-7-methylquinoxalin-5-yl)-7,8-dihydrobenzofuro [5,4-d]thiazol-7-yl)methyl)carbamate], the IC50 turned out to be 4 nM.
For the compound `COc1cnc2c(-c3nc4ccc5c(c4s3)C[C@@H](CNC(=O)OCc3ccccc3)O5)cc(C)cc2n1` [Example 225, (S)-benzyl ((2-(2-methoxy-7-methylquinoxalin-5-yl)-7,8-dihydrobenzofuro[5,4-d]thiazol-7-yl)methy 1)carbamate], the IC50 came to 0.6 nM.
In the case of `COC(=O)NC[C@@H]1Cc2c(ccc3nc(-c4cc(C)cc5nc(OC)cnc45)sc23)O1` [Example 226, (S)-methyl ((2-(2-methoxy-7-methylquinoxalin-5-yl)-7,8-dihydrobenzofuro[5,4-d]thiazol-7-yl)methy 1)carbamate] it was 1.4 nM.
In the case of `COc1cnc2c(-c3nc4ccc5c(c4s3)C[C@@H](CNC(=O)OC3CCOCC3)O5)cc(C)cc2n1` [Example 227, (S)-tetrahydro-2H-pyran-4-yl ((2-(2-methoxy-7-methylquinoxalin-5-yl)-7,8-dihydrobenzofuro[5,4-d]thiazol-7-yl)methy 1)carbamate] it was 1.3 nM; in that of `COc1cnc2c(-c3nc4ccc5c(c4s3)C[C@@H](CNS(C)(=O)=O)O5)cc(C)cc2n1` [Example 228, (S)-N-((2-(2-methoxy-7-methylquinoxalin-5-yl)-7,8-dihydrobenzofuro[5,4-d]thiazol-7-yl)methyl)methanesulfonamide], 190 nM.
In the case of `COc1cnc2c(-c3nc4ccc5c(c4s3)C[C@@H](CNC(=O)OCC3CCOC3)O5)cc(C)cc2n1` (stereo partly drawn) [Example 229, (Tetrahydrofuran-3-yl)methyl (((S)-2-(2-methoxy-7-methylquinoxalin-5-yl)-7,8-dihydrobenzofuro[5,4-d]thiazol-7-yl)methyl)carbamate] it was 20 nM.
As to `COc1cnc2c(-c3nc4ccc5c(c4s3)C[C@@H](CNC(=O)O[C@@H]3CCOC3)O5)cc(C)cc2n1` [Example 230, (R)-tetrahydrofuran-3-yl (((S)-2-(2-methoxy-7-methylquinoxalin-5-yl)-7,8-dihydrobenzofuro[5,4-d]thiazol-7-yl)methyl)carbamate], the IC50 is 6.4 nM.
In the case of `COc1cnc2c(-c3nc4ccc5c(c4s3)C[C@@H](CNC(=O)OCc3cccc(C#N)c3)O5)cc(C)cc2n1` [Example 231, (S)-3-cyanobenzyl ((2-(2-methoxy-7-methylquinoxalin-5-yl)-7,8-dihydrobenzofuro[5,4-d]thiazol-7-yl)methy 1)carbamate] it was 5.8 nM; in that of `COc1cnc2c(-c3nc4ccc5c(c4s3)C[C@@H](CNC(=O)OCc3cccnc3)O5)cc(C)cc2n1` [Example 232, (S)-pyridin-3-ylmethyl ((2-(2-methoxy-7-methylquinoxalin-5-yl)-7,8-dihydrobenzofuro[5,4-d]thiazol-7-yl)methy 1)carbamate], 3.3 nM; in that of `COc1cnc2c(-c3nc4ccc5c(c4s3)C[C@@H](CNC(=O)OCc3ccncc3)O5)cc(C)cc2n1` [Example 233, (S)-pyridin-4-ylmethyl ((2-(2-methoxy-7-methylquinoxalin-5-yl)-7,8-dihydrobenzofuro[5,4-d]thiazol-7-yl)methy 1)carbamate], 6.6 nM.
In the case of `COc1cnc2c(-c3nc4ccc5c(c4s3)C[C@@H](CNC(=O)OC3CCCOC3)O5)cc(C)cc2n1` (stereo partly drawn) [Example 234, Tetrahydro-2H-pyran-3-yl (((S)-2-(2-methoxy-7-methylquinoxalin-5-yl)-7,8-dihydrobenzofuro[5,4-d]thiazol-7-yl)methyl)carbamate] it was 4.3 nM.
In the case of `COc1cnc2c(-c3nc4ccc5c(c4s3)C[C@@H](CNC(=O)OCC3CCCCO3)O5)cc(C)cc2n1` (stereo partly drawn) [Example 235, (Tetrahydro-2H-pyran-2-yl)methyl (((S)-2-(2-methoxy-7-methylquinoxalin-5-yl)-7,8-dihydrobenzofuro[5,4-d]thiazol-7-yl)methyl)carbamate] it was 4.1 nM.
As for `COc1cnc2c(-c3nc4ccc5c(c4s3)C[C@@H](CNC(=O)O[C@H]3CCOC3)O5)cc(C)cc2n1` [Example 236, (S)-tetrahydrofuran-3-yl (((S)-2-(2-methoxy-7-methylquinoxalin-5-yl)-7,8-dihydrobenzofuro[5,4-d]thiazol-7-yl)methyl)carbamate], the IC50 stood at 2.7 nM.
In the case of `COc1cnc2c(-c3nc4cc(F)c5c(c4s3)C[C@@](C)(COP(=O)(O)O)O5)cc(C)cc2n1` [Example 237, (S)-(5-fluoro-2-(2-methoxy-7-methylquinoxalin-5-yl)-7-methyl-7,8-dihydrobenzofuro[5,4-d]thiazol-7-yl)methyl dihydrogen phosphate] it was 40 nM; in that of `COc1cnc2c(-c3nc4cc(F)c5c(c4s3)[C@H](C)[C@@H](CO)O5)cc(C)cc2n1` [Example 238, ((7S,8S)-5-fluoro-2-(2-methoxy-7-methylquinoxalin-5-yl)-8-methyl-7,8-dihydrobenzofuro[5,4-d]thiazol-7-yl)methanol], 1.3 nM; in that of `COc1cnc2c(-c3nc4cc(F)c5c(c4s3)[C@@H](C)[C@H](CO)O5)cc(C)cc2n1` [Example 239, ((7R,8R)-5-fluoro-2-(2-methoxy-7-methylquinoxalin-5-yl)-8-methyl-7,8-dihydrobenzofuro[5,4-d]thiazol-7-yl)methanol], 49 nM.
In the case of `COC(=O)NC[C@]1(C)Cc2c(c(F)cc3nc(-c4cc(C)cc5nc(OC)cnc45)sc23)O1` [Example 240, (S)-methyl ((5-fluoro-2-(2-methoxy-7-methylquinoxalin-5-yl)-7-methyl-7,8-dihydrobenzofuro[5,4-d]thiazol-7-yl)methyl)carbamate] it was 32 nM.
For the compound `COc1cnc2c(-c3nc4cc(F)c5c(c4s3)C[C@@](C)(CNC(=O)OCC(C)C)O5)cc(C)cc2n1` [Example 241, (S)-isobutyl ((5-fluoro-2-(2-methoxy-7-methylquinoxalin-5-yl)-7-methyl-7,8-dihydrobenzofuro[5,4-d]thiazol-7-yl)methyl)carbamate], the IC50 was found to be 8.6 nM.
In the case of `COc1cnc2c(-c3nc4cc(F)c5c(c4s3)C[C@@](C)(CNC(=O)OC(C)(C)C)O5)cc(C)cc2n1` [Example 242, (S)-tert-butyl ((5-fluoro-2-(2-methoxy-7-methylquinoxalin-5-yl)-7-methyl-7,8-dihydrobenzofuro[5,4-d]thiazol-7-yl)methyl)carbamate] it was 9.3 nM.
In the case of `COc1cnc2c(-c3nc4ccc5c(c4s3)C[C@@H](CNC(=O)OC(C)(C)C)O5)cc(C)cc2n1` [Example 244, (S)-tert-butyl ((2-(2-methoxy-7-methylquinoxalin-5-yl)-7,8-dihydrobenzofuro[5,4-d]thiazol-7-yl)methyl)carbamate], the IC50 amounted to 100 nM.
